In publication PMC5653977 (EMBO Molecular Medicine, 2017):
Where “and” joins values, the source holds several entries; their conditions need not be identical. Identical values can stand only once. Counter-ions that a name gives are not always drawn. Like-named read-outs stand apart in the source and are kept apart here.

System: NRG1-ERBB4 signaling
Test: Nrg1-ERBB4-PIK3R1 split TEV co-culture compound screen of the NIH Clinical Collection
Type: cell-based, human
[1] = compound screen of the NIH Clinical Collection, sheet raw data NCC-003, compounds ranked by Z-score
[2] = NIH Clinical Collection NCC-003 raw data, compounds ranked by Z-score, 'flagged' given instead of a Z-score
[3] = compounds at 10 μM, 24 h, PC12 split TEV assay cells co-cultured with Nrg1-expressing PC12 cells, analysed with cellHTS2

Row | Structure (SMILES) | Z-SCORE [1] | Z-SCORE [3] | also measured
1 | CN1CC[C@]2(c3cccc(O)c3)Cc3nc4ccccc4cc3C[C@H]2C1 [SB 205607] | 0.19 | – | –
2 | C=C(C)CN1CC[C@]23c4c5ccc(O)c4O[C@H]2c2[nH]c4ccccc4c2C[C@@]3(O)C1C5.Cl.O [SDM25N] | -0.11 | – | –
3 | COc1cc(C[C@@H](CO)[C@H](CO)Cc2ccc(O)c(OC)c2)ccc1O [SECOISOLARICIRESINOL] | -0.17 | – | –
4 | CC(C)CC(N(C)C)C1(c2ccc(Cl)cc2)CCC1.Cl (centres unmarked) [SIBUTRAMINE HCl] | – | – | Z-SCORE [2]: -1.35
5 | CN[C@@H]1[C@H](O)[C@H](NC)[C@H]2O[C@@]3(O)C(=O)C[C@@H](C)O[C@H]3O[C@@H]2[C@H]1O.Cl.Cl.O.O.O.O.O [SPECTINOMYCIN DIHYDROCHLORIDE PENTAHYDRATE, reference compound] | – | 0.04 | –
6 | Cl.NC1CCN(c2cccc(Cl)n2)CC1 [SR 57,227A] | -0.24 | – | –
7 | Cc1cn([C@H]2C=C[C@@H](CO)O2)c(=O)[nH]c1=O [STAVUDINE, reference compound] | 0.08 | 0.2 | –
8 | O=C(O)c1cc(/N=N/c2ccc(S(=O)(=O)Nc3ccccn3)cc2)ccc1O [SULFASALAZINE] | – | – | Z-SCORE [2]: -2.84
9 | CNS(=O)(=O)Cc1ccc2[nH]cc(CCN(C)C)c2c1 [SUMATRIPTAN SUCCINATE] | -0.07 | – | –
10 | CNCC(O)c1ccc(O)cc1 (centres unmarked) [SYNEPHRINE] | -0.41 | – | –
11 | OCc1cc(C(O)CNCCCCCCOCCCCc2ccccc2)ccc1O (centres unmarked) [Salmeterol] | 0.6 | – | –
12 | C#CCN(C)[C@H](C)Cc1ccccc1 [Selegiline hydrochloride] | -0.57 | – | –
13 | CN[C@H]1CC[C@@H](c2ccc(Cl)c(Cl)c2)c2ccccc21 [Sertraline, reference compound] | -0.03 | flagged | –
14 | CC(C)CC(N(C)C)C1(c2ccc(Cl)cc2)CCC1 (centres unmarked) [Sibutramine] | -0.34 | – | –
15 | CCC(C)(C)C(=O)O[C@H]1C[C@@H](C)C=C2C=C[C@H](C)[C@H](CC[C@@H]3C[C@@H](O)CC(=O)O3)[C@H]21 [Simvastatin, reference compound] | – | flagged | –
16 | CN(C)CCCN1c2ccccc2Sc2ccc(Cl)cc21 [Sonazine, reference compound] | – | 0.6 | –
17 | CC(C)NCC(O)c1ccc(NS(C)(=O)=O)cc1 (centres unmarked) [Sotalol hydrochloride] | 1.57 | – | –
18 | C[C@]12Cc3c[nH]nc3C[C@@H]1CC[C@@H]1[C@@H]2CC[C@@]2(C)[C@H]1CC[C@]2(C)O [Stanozolol] | 0.07 | – | –
19 | CC(C)(C)C(O)/C=C/c1ccc2c(c1)OCO2 (centres unmarked) [Stiripentol] | -0.21 | – | –
20 | CC(=O)NS(=O)(=O)c1ccc(N)cc1 [Sulfacetamide, reference compound] | – | 0.29 | –
21 | Cc1cc(NS(=O)(=O)c2ccc(N)cc2)no1 [Sulfamethoxazole, reference compound] | – | 0.87 | –
22 | O=C1C(CC[S+]([O-])c2ccccc2)C(=O)N(c2ccccc2)N1c1ccccc1 (centres unmarked) [Sulfinpyrazone, reference compound] | – | 0.99 | –
23 | Cc1noc(NS(=O)(=O)c2ccc(N)cc2)c1C [Sulfisoxazole, reference compound] | – | 1.21 | –
24 | CC1=C(CC(=O)O)c2cc(F)ccc2/C1=C\c1ccc([S+](C)[O-])cc1 (centres unmarked) [Sulindac, reference compound] | – | 1.51 | –

Row | Structure (SMILES) | Z-SCORE [1] | Z-SCORE [3] | also measured
25 | NC12CC3CC(CC(C3)C1)C2 [Symmetrel, reference compound] | – | 0.15 | –
26 | C=CC[C@@H]1/C=C(\C)C[C@H](C)C[C@H](OC)[C@H]2O[C@@](O)(C(=O)C(=O)N3CCCC[C@H]3C(=O)O[C@H](/C(C)=C/[C@@H]3CC[C@@H](O)[C@H](OC)C3)[C@H](C)[C@@H](O)CC1=O)[C@H](C)C[C@@H]2OC [TACROLIMUS] | – | – | Z-SCORE [2]: -1.97
27 | O=C1c2c(O)cc(O)cc2OC(c2ccc(O)c(O)c2)C1O (stereo not drawn) [TAXIFOLIN-(+)] | 1.25 | – | –
28 | [H]/N=C(/NCCCCC)N/N=C/c1c[nH]c2ccc(OC)cc12 [TEGASEROD MALEATE] | – | – | Z-SCORE [2]: flagged
29 | Cn1nnc2c(C(N)=O)ncn2c1=O [TEMOZOLOMIDE] | 0.54 | – | –
30 | CN(C/C=C/C#CC(C)(C)C)Cc1cccc2ccccc12 [TERBINAFINE HCl] | -0.44 | – | –
31 | CN(C)[C@@H]1C(O)=C(C(N)=O)C(=O)[C@@]2(O)C(O)=C3C(=O)c4c(O)cccc4[C@@](C)(O)[C@H]3C[C@@H]12 [TETRACYCLINE, reference compound] | – | 0.95 | –
32 | FC(F)(F)c1cccc(N2CCNCC2)c1 [TFMPP] | 1.34 | – | –
33 | c1ccc2[nH]c(-c3cscn3)nc2c1 [THIABENDAZOLE, reference compound] | – | -1.42 | –
34 | CSc1ccc2c(c1)N(CCC1CCCCN1C)c1ccccc1S2 (centres unmarked) [THIORIDAZINE HYDROCHLORIDE, reference compound] | – | flagged | –
35 | CN1CCN(CC/C=C2/c3ccccc3Sc3ccc(S(=O)(=O)N(C)C)cc32)CC1 [THIOTHIXENE, reference compound] | – | 1.3 | –
36 | Cc1ccsc1C(=CCCN1CCC[C@@H](C(=O)O)C1)c1sccc1C [TIAGABINE HCl] | -0.1 | – | –
37 | C#C[C@]1(O)CC[C@H]2[C@@H]3[C@H](C)CC4=C(CCC(=O)C4)[C@H]3CC[C@@]21C [TIBOLONE] | 2.26 | – | –
38 | CCS(=O)(=O)CCn1c([N+](=O)[O-])cnc1C [TINIDAZOLE] | -0.51 | – | –
39 | Cc1cccc(C)c1NC(=O)C(C)N (centres unmarked) [TOCAINIDE] | -0.41 | – | –
40 | Cc1ccc(S(=O)(=O)NC(=O)NN2CCCCCC2)cc1 [TOLAZAMIDE, reference compound] | – | 0.3 | –
41 | Cc1ccc(O)c([C@H](CCN(C(C)C)C(C)C)c2ccccc2)c1 [TOLTERODINE TARTRATE] | -1.01 | – | –
42 | CC1(C)O[C@@H]2[C@@H](CO[C@@]3(COS(N)(=O)=O)OC(C)(C)O[C@@H]23)O1 [TOPIRAMATE] | 0.63 | – | –
43 | Cc1cccc(Nc2ccncc2S(=O)(=O)NC(=O)NC(C)C)c1 [TORASEMIDE] | 0.4 | – | –
44 | CN(C)CCOc1ccc(/C(=C(/CCCl)c2ccccc2)c2ccccc2)cc1 [TOREMIFENE CITRATE] | – | – | Z-SCORE [2]: flagged
45 | NC1CCN(c2nc3c(cc2F)c(=O)c(C(=O)O)cn3-c2ccc(F)cc2F)C1 (centres unmarked) [TOSUFLOXACIN TOSYLATE] | 0.08 | – | –
46 | O=c1n(CCCN2CCN(c3cccc(Cl)c3)CC2)nc2ccccn12 [TRAZODONE HYDROCHLORIDE] | 0.17 | – | –
47 | O=C(O[C@H]1[C@H](Oc2ccccc2COC(=O)C2(O)C=CCCC2=O)O[C@H](CO)[C@@H](O)[C@@H]1O)c1ccccc1 (some centres unmarked) [TREMULACIN] | 0.29 | – | –
48 | CC1(C)O[C@@H]2C[C@H]3[C@@H]4CCC5=CC(=O)C=C[C@]5(C)[C@@]4(F)[C@@H](O)C[C@]3(C)[C@]2(C(=O)CO)O1 [TRIAMCINOLONE ACETONIDE, reference compound] | – | -1.51 | –

Row | Structure (SMILES) | Z-SCORE [1] | Z-SCORE [3] | also measured
49 | CSc1nc2cc(Cl)c(Oc3cccc(Cl)c3Cl)cc2[nH]1 [TRICLABENDAZOLE] | – | – | Z-SCORE [2]: -1.39
50 | CCC(COC(=O)c1cc(OC)c(OC)c(OC)c1)(c1ccccc1)N(C)C.O=C(O)/C=C\C(=O)O (centres unmarked) [TRIMEBUTINE MALEATE] | – | – | Z-SCORE [2]: -1.14
51 | CN(C)CCN(Cc1ccccc1)c1ccccn1 [TRIPELENNAMINE HYDROCHLORIDE] | 0.58 | – | –
52 | CC(C)[C@]12O[C@H]1[C@@H]1O[C@]13[C@]1(O[C@H]1C[C@H]1C4=C(CC[C@@]13C)C(=O)OC4)[C@@H]2O [TRIPTOLIDE] | – | – | Z-SCORE [2]: flagged
53 | CN1[C@@H]2CC[C@H]1C[C@@H](OC(=O)c1c[nH]c3ccccc13)C2 [TROPISETRON HCl] | 0.72 | – | –
54 | COc1cc(C(=O)NC2CCCNC2)cc(OC)c1OC (centres unmarked) [TROXIPIDE] | -0.33 | – | –
55 | c1ccc2c3c([nH]c2c1)CNCC3 [TRYPTOLINE] | 0.19 | – | –
56 | CC/C(=C(\c1ccccc1)c1ccc(OCCN(C)C)cc1)c1ccccc1 [Tamoxifen, reference compound] | – | 1.48 | –
57 | CC[C@H]1OC(=O)[C@H](C)C(=O)[C@H](C)[C@@H](O[C@@H]2O[C@H](C)C[C@H](N(C)C)[C@H]2O)[C@](C)(OC)C[C@@H](C)C(=O)[C@H](C)[C@H]2N(CCCCn3cnc(-c4cccnc4)c3)C(=O)O[C@]12C [Telithromycin, reference compound] | 3.13 | 3.13 | –
58 | COc1cc2nc(N3CCN(C(=O)C4CCCO4)CC3)nc(N)c2cc1OC (centres unmarked) [Terazosin, reference compound] | -0.8 | -1.96 | –
59 | CC(C)(C)NCC(O)c1cc(O)cc(O)c1 (centres unmarked) [Terbutaline Sulfate, reference compound] | – | 0.15 | –
60 | C[C@]12CC[C@H]3[C@@H](CCC4=CC(=O)CC[C@@]43C)[C@@H]1CC[C@@H]2O [Testosterone, reference compound] | – | – | Z-SCORE: 0.79 and 0.91
61 | O=C1CCC(N2C(=O)c3ccccc3C2=O)C(=O)N1 (centres unmarked) [Thalidomide, reference compound] | – | -0.61 | –
62 | Cn1c(=O)c2[nH]cnc2n(C)c1=O [Theophylline, reference compound] | – | 2.57 | –
63 | Clc1ccc2nsnc2c1NC1=NCCN1 [Tizanidine hydrochloride, reference compound] | – | -0.96 | –
64 | CCCCNC(=O)NS(=O)(=O)c1ccc(C)cc1 [Tolbutamide, reference compound] | – | 0.32 | –
65 | CC[C@@]1(O)C(=O)OCc2c1cc1n(c2=O)Cc2cc3c(CN(C)C)c(O)ccc3nc2-1 [Topotecan HCl, reference compound] | 7.97 | 7.97 | –
66 | COc1cccc(C2(O)CCCCC2CN(C)C)c1 (centres unmarked) [Tramadol] | -0.17 | – | –
67 | Nc1nc(N)c2nc(-c3ccccc3)c(N)nc2n1 [Triamterene, reference compound] | – | 0.78 | –
68 | Oc1cc(Cl)ccc1Oc1ccc(Cl)cc1Cl [Triclosan, reference compound] | – | flagged | –
69 | NC(=O)N1c2ccccc2CC(=O)c2ccccc21 [Trileptal] | 0.62 | – | –
70 | COc1cc(Cc2cnc(N)nc2N)cc(OC)c1OC [Trimethoprim, reference compound] | – | 0.28 | –
71 | c1ccc2c(c1)CCCC2C1=NCCN1 (centres unmarked) [Tyzine, reference compound] | – | 0.46 | –
72 | COc1ccccc1N1CCN(CCCNc2cc(=O)n(C)c(=O)n2C)CC1 [URAPIDIL HYDROCHLORIDE] | 0.51 | – | –
